# In patent US9051280B2, “Tetraline and indane derivatives, pharmaceutical compositions containing them, and their use in therapy” (AbbVie Deutschland GmbH & Co. KG, priority 2010, dated 2015):
# Biological target: human GlyT1c transporter (Homo sapiens (Human), UniProt P48067)
# Assay: Radioligand binding assay using recombinant CHO cell membranes expressing human GlyT1
# Settings: read-out: radioligand binding Kiapp
# Method: Biological Testing • 1. [^3H]-Glycine uptake into recombinant CHO cells expressing human GlyT1: Human GlyT1c expressing recombinant hGlyT1c—5_CHO cells were plated at 20,000 cells per well in 96 well Cytostar-T scintillation microplates (Amersham Biosciences) and cultured to sub-confluency for 24 h. For glycine uptake assays the culture medium was aspirated and the cells were washed once with 100 μl HBSS (Gibco BRL, #14025-050) with 5 mM L-Alanine (Merck #1007). 80 μl HBSS buffer were added, followed by 10 μl inhibitor or vehicle (10% DMSO) and 10 μl [^3H]-glycine (TRK71, Amersham Biosciences) to a final concentration of 200 nM for initiation of glycine uptake. The plates were placed in a Wallac Microbeta (PerkinElmer) and continuously counted by solid phase scintillation spectrometry during up to 3 hours. Nonspecific uptake was determined in the presence of 10 μM Org24598. IC50 calculations were made by four-parametric logistic nonlinear regression analysis (GraphPad Prism) using determinations within the range of linear increase of [^3H]-glycine incorporation between 60 and 120 min. • 2. Radioligand binding assays using recombinant CHO cell membranes expressing human GlyT1:
# Radioligand binding to human GlyT1c transporter-expressing membranes was determined as described in Mezler et al., Molecular Pharmacology 74:1705-1715, 2008.
# Sequence of human GlyT1c transporter (P48067 whole entry): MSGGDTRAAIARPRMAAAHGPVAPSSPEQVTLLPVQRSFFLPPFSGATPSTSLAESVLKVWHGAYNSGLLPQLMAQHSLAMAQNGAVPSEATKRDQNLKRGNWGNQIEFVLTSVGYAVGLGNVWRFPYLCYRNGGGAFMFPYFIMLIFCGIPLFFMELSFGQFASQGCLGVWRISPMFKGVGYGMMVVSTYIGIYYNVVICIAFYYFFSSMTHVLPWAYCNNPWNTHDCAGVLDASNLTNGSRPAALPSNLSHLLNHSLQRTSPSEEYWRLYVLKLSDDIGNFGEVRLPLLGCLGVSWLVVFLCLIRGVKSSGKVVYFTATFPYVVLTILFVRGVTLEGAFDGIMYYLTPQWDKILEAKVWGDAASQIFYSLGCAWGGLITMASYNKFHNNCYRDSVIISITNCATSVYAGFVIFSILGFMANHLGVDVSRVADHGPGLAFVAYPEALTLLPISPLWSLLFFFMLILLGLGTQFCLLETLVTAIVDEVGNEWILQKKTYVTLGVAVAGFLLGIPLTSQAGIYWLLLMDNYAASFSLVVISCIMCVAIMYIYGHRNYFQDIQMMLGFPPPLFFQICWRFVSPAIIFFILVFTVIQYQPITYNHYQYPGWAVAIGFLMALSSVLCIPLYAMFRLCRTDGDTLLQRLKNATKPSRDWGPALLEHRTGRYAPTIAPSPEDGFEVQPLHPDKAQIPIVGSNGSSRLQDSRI
row,SMILES,Ki
1,"NC[C@@H]1CCc2ccc(OCCNS(=O)(=O)CC3CC3)cc2[C@@H]1Cc1ccccc1 (stereo in doubt) [Example 196, N-[2-(7-Aminomethyl-8-benzyl-5,6,7,8-tetrahydro-naphthalen-2-yloxy)-ethyl]-C-cyclopropyl-methanesulfonamide]",≤ 100 nM
2,"CCS(=O)(=O)NCCOc1ccc2c(c1)[C@H](Cc1ccccc1)[C@H](CNC)CC2 (stereo in doubt) [Example 198, Ethanesulfonic acid [2-(8-benzyl-7-methylaminomethyl-5,6,7,8-tetrahydro-naphthalen-2-yloxy)-ethyl]-amide]",≤ 100 nM
3,"Cn1cnc(S(=O)(=O)NCCOc2ccc3c(c2)[C@H](Cc2ccccc2)[C@H](CN2CCC2)CC3)c1 (stereo in doubt) [Example 202, 1-Methyl-1H-imidazole-4-sulfonic acid [2-(7-azetidin-1-ylmethyl-8-benzyl-5,6,7,8-tetrahydro-naphthalen-2-yloxy)-ethyl]-amide]",≤ 100 nM
4,"CCS(=O)(=O)NCCOc1ccc2c(c1)[C@H](Cc1ccccc1)[C@H](CN)CC2 (stereo in doubt) [Example 195, Ethanesulfonic acid [2-(7-aminomethyl-8-benzyl-5,6,7,8-tetrahydro-naphthalen-2-yloxy)-ethyl]-amide]",≤ 100 nM
5,"CCS(=O)(=O)NCCOc1ccc2c(c1)[C@H](Cc1ccccc1)[C@H](CN1CCC1)CC2 (stereo in doubt) [Example 200, Ethanesulfonic acid [2-(7-azetidin-1-ylmethyl-8-benzyl-5,6,7,8-tetrahydro-naphthalen-2-yloxy)-ethyl]-amide]",≤ 500 nM
6,"CNC[C@@H]1CCc2ccc(OCCNS(=O)(=O)CC3CC3)cc2[C@@H]1Cc1ccccc1 (stereo in doubt) [Example 199, N-[2-(8-Benzyl-7-methylaminomethyl-5,6,7,8-tetrahydro-naphthalen-2-yloxy)-ethyl]-C-cyclopropyl-methanesulfonamide]",≤ 100 nM
7,"O=S(=O)(CC1CC1)NCCOc1ccc2c(c1)[C@H](Cc1ccccc1)[C@H](CN1CCC1)CC2 (stereo in doubt) [Example 201, N-[2-(7-Azetidin-1-ylmethyl-8-benzyl-5,6,7,8-tetrahydro-naphthalen-2-yloxy)-ethyl]-C-cyclopropyl-methanesulfonamide]",≤ 100 nM
8,"Cn1cnc(S(=O)(=O)NCc2ccc3c(c2)[C@H](Cc2ccccc2)[C@H](CN2CCC2)CC3)c1 (stereo in doubt) [Example 203, 1-Methyl-1H-imidazole-4-sulfonic acid (7-azetidin-1-ylmethyl-8-benzyl-5,6,7,8-tetrahydro-naphthalen-2-ylmethyl)-amide]",≤ 100 nM
